In one test the target is T1, nucleolin/2957NT (Homo sapiens, UniProt P19338).
T1 construct: without the N-terminal acidic stretches domain
Put plainly: EMSA, interference with nucleolin/nucleic acid ligand interaction. The settings on record: ligand 2957NT, read-out: IC50, concentration of Compound A-1 required to dissociate half of the complexed nucleic acid ligand and nucleolin protein. The class given is binding. The protocol: (§1) The following assays assessed effects of compounds on interactions between nucleolin and nucleic acid ligands capable of forming quadruplex (QP) and hairpin (HP) secondary structures. Nucleic acid ligands tested were a cMyc QP DNA having nucleotide sequence 5′-[…]-3′ (SEQ ID NO: 176) and a HP pre-rRNA region to which nucleolin binds, having the sequence 5′-[…]-3′ (SEQ ID NO: 177). In the assays, recombinant nucleolin (˜250 nM), which was fused to maltose binding protein and had the sequence under accession number NM_005381 without the N-terminal acidic stretches domain, was incubated with each of the two ^32P-labeled nucleic acid ligands (10 or 250 nM). Nucleolin and the nucleic acid ligand were incubated in the presence or absence of a test compound of Formula A-1, B-1, C-6 or C-7 in an incubation buffer (12.5 mM Tris, pH 7.6, 60 mM KCl, 1 mM MgCl2, 0.1 mM EDTA, 1 mM DTT, 5% glycerol, 0.1 mg/ml BSA) for 30 minutes at room temperature. Structures for A-1 and B-1 are shown above and structures for C-6 and C-7 are shown hereafter: [drawing 17] The resulting complexes were separated on a 6% DNA retardation gel using 0.5× TBE with 20 mM KCl as a running buffer (i.e., electrophoresis mobility shift assay (EMSA)).
(§2) The assay also was conducted using nucleic acid ligands derived from human ribosomal DNA. Sequences of these nucleic acids are shown in the preceding example. […] A “+” represents the weakest nucleolin affinity and least interference by compound A-1 and a “++++” represents the strongest nucleolin affinity and greatest interference by compound A-1.
(§3) The assay also was conducted in a filter-binding format. […] The protein-quadruplex mixtures were incubated for 30 min at ambient temperature and filtered through mixed cellulose ester membrane filters (Millipore) with gentle suction. The filters were washed twice with […] of binding buffer, dried and OptiPhase ‘SuperMix’ scintillation cocktail (Perkin Elmer) was added to the wells. Radioactivity was assayed with MicroBeta scintillation counter (Perkin Elmer). Binding curves were constructed and apparent Kd's and Bmax's for the complexes were calculated using the GraphPad Prizm software program (GraphPad Software). In the following table, the nucleic acid ligand is designated in the first column using the nomenclature described herein; the second column provides the nucleotide sequence of the nucleic acid ligand; the third column is the conformation of the ligand as determined by circular dichroism (M is mixed, P is parallel, A is antiparallel, C is complex, SS is single-stranded and ND is not determined); the fourth column is the dissociation constant determined by the filter binding assay of nucleolin protein and the nucleic acid ligand; the fifth column is a Bmax constant determined by the filter binding assay, which is the percent of active nucleic acid ligand in each assay; and the sixth column presents the concentration of Compound A-1 required to dissociate half of the complexed nucleic acid ligand and nucleolin protein, as determined by the EMSA assay described above.

The target of another test is T2, nucleolin/5701NT (Homo sapiens, UniProt P19338).
T2 construct: without the N-terminal acidic stretches domain
The description is as above. The class given is binding. The settings on record: ligand 5701NT, read-out: IC50, concentration of Compound A-1 required to dissociate half of the complexed nucleic acid ligand and nucleolin protein. The protocol: as §1, §2, §3

For a further test, the target named is T3, nucleolin/6374NT (Homo sapiens, UniProt P19338).
T3 construct: without the N-terminal acidic stretches domain
The description is as above. It is filed as binding. As to conditions: ligand 6374NT, read-out: IC50, concentration of Compound A-1 required to dissociate half of the complexed nucleic acid ligand and nucleolin protein. The protocol:
as §1, §2, §3

The next test concerns the target T4, nucleolin/6534NT (Homo sapiens, UniProt P19338).
T4 construct: without the N-terminal acidic stretches domain
Described as above. It is filed as binding. As to conditions: ligand 6534NT, read-out: IC50, concentration of Compound A-1 required to dissociate half of the complexed nucleic acid ligand and nucleolin protein. As for the experimental part:
as §1, §2, §3

For the next test, the target named is T5, nucleolin/6960NT (Homo sapiens, UniProt P19338).
T5 construct: without the N-terminal acidic stretches domain
The description is as above. The class given is binding. As to conditions: ligand 6960NT, read-out: IC50, concentration of Compound A-1 required to dissociate half of the complexed nucleic acid ligand and nucleolin protein. As for the experimental part: as §1, §2, §3

The next test has as its target T6, nucleolin/7253NT (Homo sapiens, UniProt P19338).
T6 construct: without the N-terminal acidic stretches domain
The test is described as above. The class given is binding. As to conditions: ligand 7253NT, read-out: IC50, concentration of Compound A-1 required to dissociate half of the complexed nucleic acid ligand and nucleolin protein. The protocol: as §1, §2, §3

The target of a further test is T7, nucleolin/8511NT (Homo sapiens, UniProt P19338).
T7 construct: without the N-terminal acidic stretches domain
The description is as above. The settings on record: ligand 8511NT, read-out: IC50, concentration of Compound A-1 required to dissociate half of the complexed nucleic acid ligand and nucleolin protein. It is filed as binding. As for the experimental part: as §1, §2, §3

A further test deals with T8, nucleolin/8762NT (Homo sapiens, UniProt P19338).
T8 construct: without the N-terminal acidic stretches domain
Described as above. It is filed as binding. The settings on record: ligand 8762NT, read-out: IC50, concentration of Compound A-1 required to dissociate half of the complexed nucleic acid ligand and nucleolin protein. As for the experimental part: as §1, §2, §3

Another test relates to cells. As to the kind of experiment: Cell cycle progression (propidium iodide, flow cytometry). The class given is cell-based. As to conditions: various concentrations, varying amounts of time. As for the experimental part: (§4) In assays for determining cell cycle progression effects, cells were harvested and single cell suspensions were prepared in buffer (e.g. PBS +2% FBS; PBS+0.1% BSA). Cells were washed twice and resuspend at 1-2×10^6 cells/ml. One ml cells was aliquotted in a 15 ml polypropylene, V-bottomed tube and 3 ml cold absolute ethanol was added. Cells were fixed for at least one hour at 4° C. Fixed cells were washed twice in PBS and one ml of propidium iodide staining solution (3.8 mM sodium citrate, 50 ug/ml propidium iodide in PBS) was added to each cell pellet and mixed well. Fifty microliters of an RNase A stock solution ([…] RNase A boiled for 5 minutes and aliquoted and stored frozen at −20° C.) was added and the resulting mixture was incubated for 3 hours at 4° C. Samples were stored at 4° C. until analyzed by flow cytometry.

The subject of test [1] is mixed-parallel quadruplex structure. As to conditions: cited from earlier work.
The test system of test [2] is DAOY medulloblastoma cells (p53−). As to the kind of experiment: Cell cycle progression (propidium iodide, flow cytometry). It is filed as cell-based. As for the experimental part:
as §4

In test [3] the test system is HCT-116 colon carcinoma cells (p53+). The test is described as above. The settings on record: HCT-116 (p53+). It is filed as cell-based. As for the experimental part: as §4
Another test deals with MiaPaCa pancreatic cells. The test is described as above. The class given is cell-based. As for the experimental part: as §4

T4 sequence (P19338 284-710 limits assumed): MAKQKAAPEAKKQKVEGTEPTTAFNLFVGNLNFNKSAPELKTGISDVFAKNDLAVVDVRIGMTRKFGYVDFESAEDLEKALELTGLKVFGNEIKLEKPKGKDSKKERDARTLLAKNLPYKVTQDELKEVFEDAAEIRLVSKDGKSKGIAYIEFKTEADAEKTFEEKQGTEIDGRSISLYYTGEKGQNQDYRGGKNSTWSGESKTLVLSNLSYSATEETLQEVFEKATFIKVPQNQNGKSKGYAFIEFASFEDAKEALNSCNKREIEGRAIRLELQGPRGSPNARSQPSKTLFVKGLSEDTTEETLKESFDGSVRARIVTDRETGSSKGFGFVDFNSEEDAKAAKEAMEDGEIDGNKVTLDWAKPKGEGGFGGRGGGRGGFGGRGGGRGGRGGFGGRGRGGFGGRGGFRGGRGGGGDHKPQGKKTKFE
T8 sequence (P19338 284-710 limits assumed): as above
T6 sequence (P19338 284-710 limits assumed): as above
T7 sequence (P19338 284-710 limits assumed): as above
T3 sequence (P19338 284-710 limits assumed): as above
T5 sequence (P19338 284-710 limits assumed): as above
T1 sequence (P19338 284-710 limits assumed): as above
T2 sequence (P19338 284-710 limits assumed): as above

For the molecule `CN1CCCC1CCNC(=O)c1cn2c3c(c(N4CCC(c5cnccn5)C4)c(F)cc3c1=O)Oc1cc3ccccc3cc1-2` (stereo not shown) [Compound A-1], the IC50 at nucleolin/2957NT was found to be 1 µM; at nucleolin/5701NT it was 3 µM; at nucleolin/6374NT, 3 µM; on nucleolin/6534NT, 10 µM; at nucleolin/6960NT, 3 µM; at nucleolin/7253NT, 10 µM. For the same molecule, the IC50 at nucleolin/8511NT and at nucleolin/8762NT was 10 µM in each case. Moreover, the “effect on the cell cycle” value in the test with cells is recorded as “little or no affect on the cell cycle”. Moreover, the “preferred quadruplex structure in competition assays” value in [1] is listed as “interact preferentially with a mixed-parallel quadruplex structure”.

For the molecule `CC(=O)N1CCN(c2ccc3c(=O)c(C(=O)NCCN4CCCC4)c4n(C)c5ccccc5n4c3n2)CC1` [Compound B-1], the cell cycle arrest entry in test [2] is “arrested primarily in the S phase with some G2 arrest as well”; in test [3], “arrested in G1 and G2 phases of the cell cycle”; in the test with MiaPaCa pancreatic cells, “arrested primarily in the S phase with some G2 arrest as well”.

Source of the values: US20070117770A1, “Human ribosomal DNA (rDNA) and ribosomal RNA (rRNA) nucleic acids and uses thereof” (Cylene Pharmaceuticals, Inc., priority 2005, published 2007).
